Experimental data: patent publication US4187312A, “3-Hydroxy-4,4-dimethyl-5-pyrrolidone derivatives” (Beecham Group Limited, priority 1975, dated 1980)

Legend:
mice = experiment: toxicity in mice; assay type: in vivo; conditions: dosed up to 900 mg/kg, subcutaneously
[1] = system: 5-hydroxytryptamine-induced bronchoconstriction; experiment: inhibition of 5-hydroxytryptamine-induced bronchoconstriction in the anaesthetised, artificially respired guinea pig (Konzett-Rossler preparation); assay type: in vivo; conditions: Cavia porcellus, iv, intravenously, read-out: inhibition of bronchoconstriction, IC50
Text: The compounds were examined for their ability to inhibit 5-hydroxytryptamine-induced bronchoconstriction in the anaesthetised, artificially respired guinea pig (Konzett-Rossler preparation).

[2] = system: pentagastrin-stimulated gastric acid secretion; experiment: inhibition of pentagastrin-stimulated gastric acid secretion in the perfused rat stomach preparation (Ghosh and Schild preparation); assay type: in vivo; conditions: 500 μg/kg, intravenously
Procedure: The anti-secretory activity of the compounds was determined by their inhibition of pentagastrin-stimulated gastric acid secretion in the perfused rat stomach preparation (Ghosh and Schild preparation).

[3] = system: aerosol administered histamine challenge; experiment: protection of conscious guinea pigs from an aerosol administered histamine challenge; assay type: in vivo, guinea pig; conditions: 30 minutes before continuous aerosol of histamine
Procedure: The compounds were examined for their ability to protect conscious guinea pigs from an aerosol administered histamine challenge. The compounds were given 30 minutes before the animals were challenged with a continuous aerosol of histamine.

Row | Compound | toxic symptoms (mice) | ED50 [1] [mg/kg] | inhibition of acid secretion [2] | time taken to elicit a pre-convulsive cough compared with control animals ([3]; 2.5 mg/kg, intra-peritoneally) | time taken to elicit a pre-convulsive cough compared with control animals ([3]; 10 mg/kg orally)
1 | CCCCCCC(C)(O)CCN1C(=O)C(C)(C)C(=O)C1CCCCCCC(=O)OCC (centres unmarked) [4,4-Dimethyl-2-(6'-ethoxycarbonyl-n-hexyl)-1-(3"-hydroxy-3"-methyl-n-nonyl)-pyrrolidin-3,5-dione] | No toxic symptoms were observed | ~0.01 | inhibited acid secretion | – | –
2 | CCCCCCC(C)(O)CCN1C(=O)C(C)(C)C(=O)C1CCCCCCC(=O)O (centres unmarked) [2-(6'-Carboxy-n-hexyl)-4,4-dimethyl-1-(3"-hydroxy-3"-methyl-n-nonyl)pyrrolidin-3,5-dione] | – | – | – | significantly prolonged | significantly prolonged
